Read-outs that look alike come from different tables or passages of the source.
Molecular target: T1, GlunN1/GluN2A glutamate receptors (Homo sapiens, UniProt Q05586+Q12879)
T1 construct: expressed in transfected cells
Assay: cell-based
Description: NMDA potentiation was assessed using the whole cell patch clamp of mammalian cells which expressed NMDA receptors.
Whole-Cell Patch Clamp of Mammalian Cells (Ionworks Barracuda (IWB)
The whole-cell patch-clamp technique was used to investigate the effects of compounds on GlunN1/GluN2A glutamate receptors expressed in mammalian cells.
HEK293 cells were transformed with adenovirus 5 DNA and transfected with cDNA encoding the human GRIN1/GRIN2A genes. Stable transfectants were selected using G418 and Zeocin-resistance genes incorporated into the expression plasmid and selection pressure maintained with G418 and Zeocin in the medium. Cells were cultured in Dulbecco's Modified Eagle Medium/Nutrient Mixture (D-MEM/F-12) supplemented with 10% fetal bovine serum, 100 μg/ml penicillin G sodium, 100 μg/ml streptomycin sulphate, 100 μg/ml Zeocin, 5 μg/ml blasticidin and 500 μg/ml G418.
Test article effects were evaluated in 8-point concentration-response format (4 replicate wells/concentration). All test and control solutions contained 0.3% DMSO and 0.01% Kolliphor® EL (C5135, Sigma). The test article formulations were loaded in a 384-well compound plate using an automated liquid handling system (SciClone ALH3000, Caliper LifeScienses). The measurements were perfomed using Ion Works Barracuda platform following this procedure:
Electrophysiological Procedures:
• a) Intracellular solution (mM): 50 mM CsCl, 90 mM CsF, 2 mM MgCl2, 5 mM EGTA, 10 mM HEPES. Adjust to pH 7.2 with CsOH. • b) Extracellular solution, HB-PS (composition in mM): NaCl, 137; KCl, 1.0; CaCl2, 5; HEPES, 10; Glucose, 10; pH adjusted to 7.4 with NaOH (refrigerated until use). • c) Holding potential: −70 mV, potential during agonist/PAM application: −40 mV. Recording procedure: • a) Extracellular buffer will be loaded into the PPC plate wells (11 μL per well). Cell suspension will be pipetted into the wells (9 μL per well) of the PPC planar electrode. • b) Whole-cell recording configuration will be established via patch perforation with membrane currents recorded by on-board patch clamp amplifiers. • c) Two recordings (scans) will be performed. First, during pre-application of test article alone (duration of pre-application—5 min) and second, during test articles and agonist (EC20 L-glutamate and 30 μM glycine) co-application to detect positive modulatory effects of the test article.
Test Article Administration: The first pre-application will consist of the addition of 20 μL of 2× concentrated test article solution and, second, of 20 μL of 1× concentrated test article and agonist at 10 μL/s (2 second total application time).

[1] = 3 μM test article, HEK293 cells expressing human GRIN1/GRIN2A, co-application with EC20 L-glutamate and 30 μM glycine, read-out: GluN2A PCA IWB Ephys % potentiation at 3 μM
[2] = HEK293, read-out: GluN2A PCA IWB Ephys % potentiation at 3 μM

T1 sequence (Q12879 23-1464, other chains not shown): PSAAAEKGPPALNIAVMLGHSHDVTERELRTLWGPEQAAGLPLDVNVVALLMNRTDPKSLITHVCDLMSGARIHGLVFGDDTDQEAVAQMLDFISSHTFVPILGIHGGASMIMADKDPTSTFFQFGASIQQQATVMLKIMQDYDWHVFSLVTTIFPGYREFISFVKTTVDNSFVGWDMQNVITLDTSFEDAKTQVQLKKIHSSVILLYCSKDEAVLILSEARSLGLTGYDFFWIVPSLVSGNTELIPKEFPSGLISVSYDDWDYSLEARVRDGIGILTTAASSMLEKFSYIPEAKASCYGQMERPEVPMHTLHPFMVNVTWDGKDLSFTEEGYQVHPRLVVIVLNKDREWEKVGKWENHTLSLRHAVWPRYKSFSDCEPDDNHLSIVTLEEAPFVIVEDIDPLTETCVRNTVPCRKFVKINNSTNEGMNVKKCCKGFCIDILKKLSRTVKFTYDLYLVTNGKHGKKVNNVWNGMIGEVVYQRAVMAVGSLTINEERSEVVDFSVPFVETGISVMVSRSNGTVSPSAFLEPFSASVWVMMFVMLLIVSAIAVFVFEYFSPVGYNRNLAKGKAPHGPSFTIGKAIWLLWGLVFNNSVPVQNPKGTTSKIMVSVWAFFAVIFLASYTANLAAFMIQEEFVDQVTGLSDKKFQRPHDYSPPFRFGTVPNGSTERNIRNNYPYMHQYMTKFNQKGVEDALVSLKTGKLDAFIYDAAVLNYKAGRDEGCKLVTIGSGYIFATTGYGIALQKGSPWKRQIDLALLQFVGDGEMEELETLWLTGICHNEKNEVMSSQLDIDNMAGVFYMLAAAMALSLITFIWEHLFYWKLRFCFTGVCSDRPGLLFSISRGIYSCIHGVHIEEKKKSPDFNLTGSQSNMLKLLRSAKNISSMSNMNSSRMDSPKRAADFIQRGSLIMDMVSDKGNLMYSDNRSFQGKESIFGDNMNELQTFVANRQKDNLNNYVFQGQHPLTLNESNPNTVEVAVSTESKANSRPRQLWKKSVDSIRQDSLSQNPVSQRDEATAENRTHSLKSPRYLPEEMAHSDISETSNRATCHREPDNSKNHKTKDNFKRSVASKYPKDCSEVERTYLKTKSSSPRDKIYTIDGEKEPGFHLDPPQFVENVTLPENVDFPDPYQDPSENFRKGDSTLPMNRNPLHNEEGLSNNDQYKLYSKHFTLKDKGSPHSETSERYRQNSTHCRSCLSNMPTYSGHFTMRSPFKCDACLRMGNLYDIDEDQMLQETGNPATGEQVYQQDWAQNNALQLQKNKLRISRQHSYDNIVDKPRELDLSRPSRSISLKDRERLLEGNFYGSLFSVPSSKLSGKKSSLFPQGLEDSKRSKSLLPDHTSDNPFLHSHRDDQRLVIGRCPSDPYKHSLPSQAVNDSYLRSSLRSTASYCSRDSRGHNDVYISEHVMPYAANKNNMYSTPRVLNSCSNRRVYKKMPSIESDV

Structure (SMILES)	activation at 3 µM [1] [%]	activation at 3 µM [2] [%]
C[C@H](CCC1(O)CCC(F)(F)CC1)[C@H]1CC[C@H]2[C@@H]3CC=C4C[C@@](C)(O)CC[C@]4(C)[C@H]3CC[C@]12C [Compound 1]	> 150	–
C[C@H](CCC1(O)CCCCC1)[C@H]1CC[C@H]2[C@@H]3CC=C4C[C@@](C)(O)CC[C@]4(C)[C@H]3CC[C@]12C [Compound 2]	> 150	–
C[C@H](CCC1(O)CCCC1)[C@H]1CC[C@H]2[C@@H]3CC=C4C[C@@](C)(O)CC[C@]4(C)[C@H]3CC[C@]12C [Compound 3]	> 150	–
C[C@H](CCC1(O)CCC1)[C@H]1CC[C@H]2[C@@H]3CC=C4C[C@@](C)(O)CC[C@]4(C)[C@H]3CC[C@]12C [Compound 4]	100 to 150	–
C[C@H](CC[C@]1(O)CCOC1)[C@H]1CC[C@H]2[C@@H]3CC=C4C[C@@](C)(O)CC[C@]4(C)[C@H]3CC[C@]12C [Compound 5-A]	100 to 150	–
C[C@H](CC[C@@]1(O)CCOC1)[C@H]1CC[C@H]2[C@@H]3CC=C4C[C@@](C)(O)CC[C@]4(C)[C@H]3CC[C@]12C [Compound 5-B]	> 150	–
C[C@H](CCC1(O)CCOC1)[C@H]1CC[C@H]2[C@@H]3CC=C4C[C@@](C)(O)CC[C@]4(C)[C@H]3CC[C@]12C (some centres unmarked) [Compound 5]	> 150	–
C[C@H](CCC1(O)CCOCC1)[C@H]1CC[C@H]2[C@@H]3CC=C4C[C@@](C)(O)CC[C@]4(C)[C@H]3CC[C@]12C [Compound 6]	100 to 150	–
C[C@H](CCC1(O)CCNCC1)[C@H]1CC[C@H]2[C@@H]3CC=C4C[C@@](C)(O)CC[C@]4(C)[C@H]3CC[C@]12C [Compound 7]	–	100 to 150
C[C@H](CCC1(O)CCN(C)CC1)[C@H]1CC[C@H]2[C@@H]3CC=C4C[C@@](C)(O)CC[C@]4(C)[C@H]3CC[C@]12C [Compound 8]	10 to 100	–
CC(=O)N1CCC(O)(CC[C@@H](C)[C@H]2CC[C@H]3[C@@H]4CC=C5C[C@@](C)(O)CC[C@]5(C)[C@H]4CC[C@]23C)CC1 [Compound 9]	> 150	–
C[C@H](CCC1(O)CCC(C)(C)CC1)[C@H]1CC[C@H]2[C@@H]3CC=C4C[C@@](C)(O)CC[C@]4(C)[C@H]3CC[C@]12C [Compound 10]	–	10 to 100
C[C@H](CCC1(O)CCCOC1)[C@H]1CC[C@H]2[C@@H]3CC=C4C[C@@](C)(O)CC[C@]4(C)[C@H]3CC[C@]12C (some centres unmarked) [Compound 11]	> 150	–
CC[C@]1(O)CC[C@@]2(C)C(=CC[C@H]3[C@@H]4CC[C@H]([C@H](C)CCC5(O)CCC(F)(F)CC5)[C@@]4(C)CC[C@@H]32)C1 [Compound 12]	> 150	–
CC[C@]1(O)CC[C@@]2(C)C(=CC[C@H]3[C@@H]4CC[C@H]([C@H](C)CCC5(O)CCC(C)(C)CC5)[C@@]4(C)CC[C@@H]32)C1 [Compound 13]	10 to 100	–
CC[C@]1(O)CC[C@@]2(C)C(=CC[C@H]3[C@@H]4CC[C@H]([C@H](C)CCC5(O)CCOCC5)[C@@]4(C)CC[C@@H]32)C1 [Compound 14]	> 150	–
CC[C@]1(O)CC[C@@]2(C)C(=CC[C@H]3[C@@H]4CC[C@H]([C@H](C)CCC5(O)CCCOC5)[C@@]4(C)CC[C@@H]32)C1 (some centres unmarked) [Compound 15]	> 150	–
C[C@H](CCC1(O)CCC(F)(F)CC1)[C@H]1CC[C@H]2[C@@H]3CC[C@H]4C[C@@](C)(O)CC[C@]4(C)[C@H]3CC[C@]12C [Compound 16]	10 to 100	–
C[C@H](CC[C@]1(O)CCOC1)[C@H]1CC[C@H]2[C@@H]3CC[C@H]4C[C@@](C)(O)CC[C@]4(C)[C@H]3CC[C@]12C [Compound 17]	> 150	–
C[C@H](CCC1(O)CCOCC1)[C@H]1CC[C@H]2[C@@H]3CC[C@H]4C[C@@](C)(O)CC[C@]4(C)[C@H]3CC[C@]12C [Compound 18]	> 150	–
C[C@H](CCC1(O)CCCOC1)[C@H]1CC[C@H]2[C@@H]3CC[C@H]4C[C@@](C)(O)CC[C@]4(C)[C@H]3CC[C@]12C (some centres unmarked) [Compound 19]	> 150	–
C[C@H](CCC1(O)CCC(C)(C)CC1)[C@H]1CC[C@H]2[C@@H]3CC[C@H]4C[C@@](C)(O)CC[C@]4(C)[C@H]3CC[C@]12C [Compound 20]	10 to 100	–
CC[C@]1(O)CC[C@@]2(C)[C@@H](CC[C@@H]3[C@@H]2CC[C@]2(C)[C@@H]([C@H](C)CCC4(O)CCC(F)(F)CC4)CC[C@@H]32)C1 [Compound 21]	> 150	–
CC[C@]1(O)CC[C@@]2(C)[C@@H](CC[C@@H]3[C@@H]2CC[C@]2(C)[C@@H]([C@H](C)CCC4(O)CCC(C)(C)CC4)CC[C@@H]32)C1 [Compound 22]	10 to 100	–
CC[C@]1(O)CC[C@@]2(C)[C@@H](CC[C@@H]3[C@@H]2CC[C@]2(C)[C@@H]([C@H](C)CCC4(O)CCOCC4)CC[C@@H]32)C1 [Compound 23]	> 150	–
CC[C@]1(O)CC[C@@]2(C)[C@@H](CC[C@@H]3[C@@H]2CC[C@]2(C)[C@@H]([C@H](C)CCC4(O)CCCOC4)CC[C@@H]32)C1 (some centres unmarked) [Compound 24]	> 150	–

— patent US12448409B2, “Oxysterols and methods of use thereof” (priority 2016, dated 2025)
